The text below walks through data of patent US10370405B2, “C-3 novel triterpenone with C-28 amide derivatives as HIV inhibitors” (HETERO LABS LIMITED, priority 2016, dated 2019).

As a reminder, the IC50 is the point on the concentration scale where inhibition reaches its midpoint. A word on the inhibition: it is how much of the control response was suppressed. Broadly, the AUC(0-t) is exposure summed from dosing to a finite time, without extrapolation to infinity. A low value points to less exposure. A word on the Cmax: it is the peak of the concentration-time curve. Broadly, the viability is a read-out of living cells in per cent, often relative to untreated cells. A lower viability goes with more harm to the cells.

Read-outs that look alike come from different tables or passages of the source.

One data set has as its system HIV-1 strain 92HT599. As to the kind of experiment: Antiviral activity: p24 estimation in MT2 cells infected with HIV-1. Particulars: for IC50: Human immunodeficiency virus 1, MT2; for inhibition at 0.01 µM / inhibition at 0.1 µM / inhibition at 1 µM: Human immunodeficiency virus 1, MT2 cells, HIV-1 92HT599, p24, ~96 hours. In kind it is cell-based. On the procedure:
MT2 cells were infected with HIV-1 strain 92HT599 (10 TCID 50/30000 cells). The infected cells were plated at the concentration of ˜30 000 cells per well in 96 well plate. Test compound was added to the micro plate in defined format with the final concentration of DMSO (vehicle) is not more than 1%. Incubation was carried out in CO2 incubator for ˜96 hours for viral infection. At the end of incubation period an aliquot from each well was taken for p24 estimation. The quantitation of p24 is an index for antiviral activity of the compound. Percent inhibition was calculated with reference to control values (vehicle controls). P-24 estimation was carried out using Advance biosciences kit as per the procedure detailed by supplier.

The nature of data set [1]: Single dose oral pharmacokinetic study. In kind it is in vivo. The note with it: mouse, plasma; Mice oral PK @30 mg/kg. The procedure:
The test item was administered through oral route to animals (rat/mice) at 30 mg/kg dose in a suitable vehicle (10% Solutol+20% PEG) at 10 ml/kg dose volume. Blood samples (˜50 μL at each time point) were collected from retro-orbital plexus using K3 EDTA as anticoagulant in eppendorf tubes at defined time intervals 30 minutes, 1 hour, 2 hour, 4 hour, 8 hour, 24 hour & 48 hour under light ether anaesthesia. The samples were centrifuged at 3500×g to separate plasma and stored at −80° C. until analysis. Plasma […] for Mice were processed as per described in sample preparation.
Standard solutions of the test compound 1 mg/mL solutions were prepared in DMSO and further dilutions were made in methanol. The calibration curve samples for LCMSMS analysis were prepared by spiking 25 μl of Mice plasma with 2.5 μl and of the appropriate working standard solution to obtain final concentrations 0.078, 0.156, 0.312, 0.625, 1.25, 2.5, 5, 10, 20 & 40 µg/ml. To the test compound plasma extraction was carried out using Acetonitrile precipitation. After reconstitution with solvent (50% Acetonitrile in Buffer) samples were analyzed by LCMSMS to get the concentrations to calculate PK Parameters.

Where [2] appears, read: 0% serum, read-out: Antiviral activity IC50 (nM) 0%.
Setting [3] is: read-out: Antiviral activity IC50 (nM) 40% serum.

Method for in vitro: On day 1 calculate the number of cells required for the assay and seed 3×10^4 cells in 200 μl per well. Weigh the compound and dissolve it in DMSO to get 10 mM stock which is further diluted to 3 mM and 1 mM. The drugs from these stocks were added to plate to get final concentration of 100 μM, 30 μM and 10 μM. […] Incubate for 4 days in 5% CO2 incubator at 37° C. On day 4, 100 μl of medium was removed from each well without disturbing the cells. Add 10 μl of MTT reagent and incubate for 4 hours at 5% CO2 incubator at 37° C. for formation of crystals. Add 200 μl of 0.1N acidic isopropanol to dissolve the crystals and read the plate at 590 nm.

On to `CC(C)C1=C2[C@H]3CC[C@@H]4[C@@]5(C)CC[C@H](OC(=O)[C@H]6C[C@@H](C(=O)O)C6(C)C)C(C)(C)[C@@H]5CC[C@@]4(C)[C@]3(C)CC[C@@]2(C(=O)N(CCN(C)C)Cc2ccc(Cl)cc2)CC1=O` [Example 14, (1R,3S)-3-((((3aR,5aR,5bR,7aR,9S,11aR,11bR,13aS)-3a-((4-chlorobenzyl)(2-(dimethylamino)ethyl)carbamoyl)-1-isopropyl-5a,5b,8,8,11a-pentamethyl-2-oxo-3,3a,4,5,5a,5b,6,7,7a,8,9,10,11,11a,11b,12,13,13a-octadecahydro-2H-cyclopenta[a]chrysen-9-yl)oxy)carbonyl)-2,2-dimethylcyclobutane-1-carboxylic acid], for which the IC50 in the data set with HIV-1 strain 92HT599 (setting [2]) is 1.72 nM. For the same compound, the IC50 in the data set on HIV-1 strain 92HT599 (setting [3]) was 9.83 nM. Besides, in the data set on HIV-1 strain 92HT599, the inhibition at 0.01 µM is 100%, the inhibition at 0.1 µM was 100% and the inhibition at 1 µM was 100%. In data set [1], this compound registered an AUC(0-t) of 166 µg·h/mL and a Cmax of 9640 ng/mL. In “in vitro”, this compound showed a viability at 4 days, 10 μM of 91%; a viability at 4 days, 30 μM of 12%; a viability at 4 days, 100 μM of 12%.

Turning to `CC(C)C1=C2[C@H]3CC[C@@H]4[C@@]5(C)CC[C@H](OC(=O)[C@H]6C[C@@H](C(=O)O)C6(C)C)C(C)(C)[C@@H]5CC[C@@]4(C)[C@]3(C)CC[C@@]2(C(=O)NC(C)(C)CO)CC1=O` [Example 15, (1R,3S)-3-((((3aR,5aR,5bR,7aR,9S,11aR,11bR,13aS)-3a-((1-hydroxy-2-methylpropan-2-yl)carbamoyl)-1-isopropyl-5a,5b,8,8,11a-pentamethyl-2-oxo-3,3a,4,5,5a,5b,6,7,7a,8,9,10,11,11a,11b,12,13,13a-octadecahydro-2H-cyclopenta[a]chrysen-9-yl)oxy)carbonyl)-2,2-dimethylcyclobutane-1-carboxylic acid], the IC50 with HIV-1 strain 92HT599 (setting [2]) was 2.84 nM. Further, the IC50 in the data set on HIV-1 strain 92HT599 (setting [3]) was 415 nM. Besides, in the data set on HIV-1 strain 92HT599, the inhibition at 0.01 µM is 97%, the inhibition at 0.1 µM was 100% and the inhibition at 1 µM is 100%. For the same compound, in data set [1], the AUC(0-t) was determined as 88.7 µg·h/mL and the Cmax amounted to 9080 ng/mL. In the data set “in vitro”, the viability at 4 days, 10 μM turned out to be 70%; the viability at 4 days, 30 μM stood at 22%; the viability at 4 days, 100 μM worked out at 6%.
